According to US11286263B2, “Macrocyclic fluorine substituted indole derivatives” (The Broad Institute, Inc., priority 2017, dated 2022):
Where two headings read alike, the source gives them in different places.

Key:
[1] = molecular target: BCL-XL (Homo sapiens (Human), UniProt Q07817); test: Protein-protein interaction assay BCL-XL/Bad BH3 peptide (BCL-XL assay), TR-FRET; type: binding; conditions: median
Experimental: Assay 2 Protein-Protein Interaction Assay: BCL-XL/Bad BH3 Peptide (BCL-XL Assay)
The dose-dependent inhibition by the compounds described in this invention of the interaction between BCL-XL and the BH3 domain of Bad (both human) was determined using a steady state binding competition assay with time-resolved fluorescence energy transfer (TR-FRET) readout. For that purpose BCL-XL (amino acids 1-212, C-terminal fused to a hexahistidine (6× His) tag (SEQ ID 3) and a synthetic Bad BH3-derived peptide of sequence Biotin-PEG2-PEG2-NLWAAQRYGRELRR-Nle-SDEFVDSFKK-amide (SEQ ID 4) served as protein receptor and tracer ligand respectively. The recombinant BCL-XL protein (expressed in Ecol) was purchased from BPS Bioscience (San Diego, Calif., USA). The Bad BH3-derived peptide can be obtained from e.g. Biosyntan (Berlin, Germany).
In the assay 11 different concentrations of each compound (0.1 nM, 0.33 nM, 1.1 nM, 3.8 nM, 13 nM, 44 nM, 0.15 μM, 0.51 μM, 1.7 μM, 5.9 μM and 20 μM) were typically measured as duplicates in the same microtiter plate. For that, 100-fold concentrated DMSO solutions were prepared by serial dilutions (1:3.4) of a 2 mM stock solution in a clear, 384-well microtiter plate (Greiner Bio-One, Frickenhausen, Germany). From there, 50 nl were transferred in a dark test plate (Greiner Bio-One, Frickenhausen, Germany). The assay was initiated by addition of 2 μl of a 2,5-fold concentrated His-BCL-XL solution (usually for a 1 nM end concentration in 5 μl reaction volume) in aqueous assay buffer [50 mM Tris/HCl pH 7, 100 mM sodium chloride (NaCl), 50 μM potassium fluoride (KF), 0.005% Tween-20, 2 mM DTT, 0.1% bovine gamma globulin (BGG)] to the compounds in the assay plate. This was followed by a 10-minute incubation step at 22° C. for pre-equilibration of the putative complex between His-BCL-XL and the compounds. After that, 3 μl of a 1.67-fold concentrated solution (in assay buffer) consisting of Bad BH3-derived peptide (1 nM end concentration) and TR-FRET detection reagents [1.67 nM anti-His-Eu cryptate and 1.67 nM streptavidin-XL665 (both from Cisbio Bioassays, Codolet, France)], were added.
The mixture was incubated in the dark for one hour at 22° C. and then overnight at 4° C. The formation of BCL-XL/Bad complexes was determined by measuring the resonance energy transfer of the anti-His-Eu-cryptate antibody to the streptavidin-XL665 present in the reaction. For that purpose, the fluorescence emission at 620 nm and 665 nm after excitation at 330-350 nm was measured in a TR-FRET measuring instrument, for instance a Rubystar or a Pherastar (both from BMG Lab Technologies, Offenburg, Germany) or a Viewlux (Perkin-Elmer). The ratio of the emission at 665 nm and at 622 nm was used as indicator of the amount of BCL-XL/Bad complexes present.
The resulting data (ratio) were normalized, taking 0% inhibition as the mean value of control measurements (usually 32 data points) where all reagents were included. In this case 50 nl DMSO were used instead of compounds. A 100% inhibition corresponded to the mean value of control measurements (usually 32 data points) where all reagents except BCL-XL were included. IC50 values were determined by regression analysis based on a 4 parameter equation (minimum, maximum, IC50, Hill; Y=Max+(Min−Max)/(1+(X/IC50)^Hill) using the Screener Software (Genedata).

[2] = tested on: SUDHL5; test: Antiproliferation assay SUDHL5 (Assay 7); type: cell-based; conditions: SUDHL5 cells, CellTiter-Glo, median, read-out: IC50 Antiproli SUDHL5 [M] (median)
Procedure, shortened: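 Luminescent ATP-based viability (CellTiter-Glo) measured after 72 h of compound treatment at 37 °C. A day 0 plate recorded at time zero served as the starting reference for proliferation.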

Sequence of BCL-XL (Q07817 1-212): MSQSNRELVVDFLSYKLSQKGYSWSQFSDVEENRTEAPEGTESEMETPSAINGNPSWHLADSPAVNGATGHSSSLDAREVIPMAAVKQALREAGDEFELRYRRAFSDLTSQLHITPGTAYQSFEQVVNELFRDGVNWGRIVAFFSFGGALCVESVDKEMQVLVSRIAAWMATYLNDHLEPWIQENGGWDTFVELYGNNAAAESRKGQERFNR

IC50 [1] [µM]	IC50 ([2]; Homo sapiens, SU-DHL-5, 72 h) [M]	SMILES	IC50 ([2]; 72 h) [M]
> 20	3e-06	CCc1c2c(nn1C)COCCCCn1c(C(=O)O)c(CCCOc3cc(C)c(Cl)c(C)c3)c3ccc(F)c-2c31 (racemic) [Example 31, (rac)-1-(3-(4-chloro-3,5-dimethylphenoxy)propyl)-12-ethyl-13-fluoro-11-methyl-4,5,6,7,9,11-hexahydropyrazolo[4′,3′:9,10][1]oxa[6]azacycloundecino[8,7,6-hi]indole-2-carboxylic acid]	
> 20	3.7e-06	Cc1nn(C)c2c1-c1c(F)ccc3c(CCCOc4cccc5ccccc45)c(C(=O)O)n(c13)C/C=C\COC2 (racemic) [Example 9, (rac)-(Z)-13-fluoro-10,12-dimethyl-1-(3-(naphthalen-1-yloxy)propyl)-4,7,9,10-tetrahydro-pyrazolo[4′,3′:9,10][1]oxa[6]azacycloundecino[8,7,6-hi]indole-2-carboxylic acid]	
> 20	2.9e-06	CCc1nn(C)c2c1-c1c(F)ccc3c(CCCOc4cc(C)c(Cl)c(C)c4)c(C(=O)O)n(c13)CCCCOC2 (racemic) [Example 46, (rac)-1-(3-(4-chloro-3,5-dimethylphenoxy)propyl)-12-ethyl-13-fluoro-10-methyl-4,5,6,7,9,10-hexahydropyrazolo[4′,3′:9,10][1]oxa[6]azacycloundecino[8,7,6-hi]indole-2-carboxylic acid]	
> 20	1.1e-06	Cc1cc(OCCCc2c(C(=O)O)n3c4c(c(F)ccc24)-c2c(nn(C)c2C)COCCCC3)cc(C)c1Cl (racemic) [Example 20, (rac)-1-(3-(4-chloro-3,5-dimethylphenoxy)propyl)-13-fluoro-11,12-dimethyl-4,5,6,7,9,11-hexahydropyrazolo[4′,3′:9,10][1]oxa[6]azacycloundecino[8,7,6-hi]indole-2-carboxylic acid]	
> 20	9e-07	Cc1c2c(nn1C)COC/C=C\Cn1c(C(=O)O)c(CCCOc3cccc4ccccc34)c3ccc(F)c-2c31 (racemic) [Example 1, (rac)-(11Z)-4-fluoro-2,3-dimethyl-7-[3-(naphthalen-1-yloxy)propyl]-2,10,13,15-tetrahydro-pyrazolo[4′,3′:9,10][1,6]oxazacycloundecino[8,7,6-hi]indole-8-carboxylic acid]	

SMILES	IC50 [1] [µM]	IC50 ([2]; Homo sapiens, SU-DHL-5, 72 h) [M]	IC50 ([2]; 72 h) [M]
Cc1c2c(nn1C)CNCCCCn1c(C(=O)O)c(CCCOc3cccc4ccccc34)c3ccc(F)c-2c31 (single isomer, unassigned; enantiomer 1) [Example 48, 4-fluoro-2,3-dimethyl-7-{3-[(naphthalen-1-yl)oxy]propyl}-10,11,12,13,14,15-hexahydro-2H-pyrazolo[3′,4′:8,9][1,6]diazacycloundecino[10,11,1-hi]indole-8-carboxylic acid (enantiomer 1)]	> 20		1.4e-06
